# Patent publication US20260174778A1, “SULFONAMIDE COMPOUND, AND PREPARATION METHOD THEREFOR AND USE THEREOF” (SHANGHAI HENLIUS BIOTECH, INC., priority 2023, published 2026)
# Read-outs that look alike come from different tables or passages of the source.
# Tests used:
# [1] = biological target: T1, KAT7 (Homo sapiens, UniProt O95251); test: Inhibition of human KAT enzymes, radioisotope method: KAT7; type: biochemical; settings: for Ki: KAT7 (full-length), radioisotope method; for KAT7/ KAT6A / KAT7/ KAT6B: selectivity, ratio of Ki
# T1 construct: purchased ACTIVE MOTIF 31889
# Excerpt: (§1) Test Example 2: Selective Inhibitory Effects of Test Compounds on Human KAT6 Enzymes (Radioisotope Method)
# (§2) • 1. KAT6A (ACTIVE MOTIF, Cat. No. 81223) • 2. KAT5 (BPS, Cat. No. 79422) • 3. KAT7 (ACTIVE MOTIF, Cat. No. 31889) • 4. KAT6B (ACTIVE MOTIF, Cat. No. 81224) • 5. Acetyl coenzyme A, [Acetyl-^3H, 250 μCi (9.25 MBq](PEIRKIN4 ELMER, Cat. No. NET290250UC) • 6. Acetyl coenzyme A (CAYMVAN, Cat. No. 16160) • 7. 384-well Flashplate (Perkin Elmer, Cat. No. SMP410A001PK) • 8. Garcinol (MCE, Cat. No. HY-107569) • 9. Automatic microplate pipetting system (Precision, PRC384U, BioTek) • 10. Ultrasonic nanoliter liquid handling system (Echo 650 Liquid Handler, Echo 650, Labcyte) • 11. Centrifuge (Avanti J-15R, Beckman Coulter) • 12. Liquid scintillation counter (Microplate Counter, Microbeta2, Perkin Elmer)
# (§3) • 1. For KAT6A and KAT7, a 1× assay buffer was prepared as follows: 10 mM Tris-HCl pH 8.0, 0.01% Tween-20, and 1 mM DTT; for KAT6B and KAT5, a 1× assay buffer was prepared as follows: 50 mM Tris-HCl pH 8.0, 0.05% Tween-20, and 1 mM DTT. • 2. Compound preparation: For KAT6A, KAT6B, and KAT7, the final concentration of the compounds started at 1 μM, followed by a 5-fold serial dilution across a total of 7 concentration gradients; for KAT5, the final concentration of the compounds started at 10 μM, followed by a 5-fold serial dilution across a total of 7 concentration gradients. • 3. Substrate reaction solution preparation: The mixed substrates of H4 peptide and [3H]acetyl coenzyme A at final concentrations were prepared using the respective 1× assay buffers, as shown in Table 4.
# (§4) • 1. The enzyme solution was transferred to 384-well reaction plates at 10 μL/well. For each negative control well, 10 μL of the 1× assay buffer was transferred. The plates were then centrifuged at 1000 RPM for 1 min and incubated at room temperature for 15 min. • 2. The substrate reaction solution was added at 10 μL/well, and the plates were centrifuged at 1000 RPM for 1 min to start the reaction. • 3. The samples for KAT6A, KAT6B, KAT7, KAT8, and KAT5 were then incubated at room temperature for 60 min, 120 min, 45 min, 60 min, and 120 min, respectively. • 4. Stop solution preparation: A stop solution was prepared by diluting 50 µM cold Ac-CoA in 1× buffer. • 5. The stop solution was added at 10 μL/well, and the plates were centrifuged at […] for 1 min to stop the reaction. • 6. The mixtures in the reaction plates were transferred at 25 μL/well to new plates (Streptavidin FlashPlate HTS PLUS, High Capacity, 384-well). • 7. The plates were incubated at room temperature for at least 60 min and then • 8. read using MicroBeta2.
# (§5) Raw data were obtained in EXCEL, and the inhibition rates were calculated:
# (§6) [formula] [formula] • Max signal: reaction signal from enzyme and substrate; • Sample signal: signal from sample; • Min signal: signal from substrate only (negative control).
# (§7) The inhibition rate data were imported into XLFit Excel, and IC50 values were obtained using formula (2):
# (§8) [formula] [formula] • Top: value of the top plateau of the fitted regression curve; • Bottom: value of the bottom plateau of the fitted regression curve; • HillSlope: slope of the fitted regression curve.
# (§9) The IC50 value was substituted into formula (3) to obtain the enzymatic activity inhibition constant Ki:
# (§10) [formula] • [S]: substrate concentration; Km: Michaelis constant.
# [2] = Pharmacokinetics in SD (Sprague Dawley) rats; type: in vivo; settings: rat, plasma, female SD rats; for clearance: read-out: CL (clearance rate); for half-life: read-out: T1/2 (half-life) (converted); for Vd: read-out: Vdss (apparent volume of distribution); for bioavailability: read-out: F (bioavailability)
# Experimental: Test Example 3: Determination of Pharmacokinetic Data of Compounds in SD (Sprague Dawley) Rats
# The pharmacokinetic characteristics of some of the compounds of the present disclosure were evaluated by a pharmacokinetic experiment in SD rats.
# Female SD rats aged 6-8 weeks from Shanghai Jihui Laboratory Animal Care Co., Ltd. were selected. The test animals were fasted overnight before administration, and feeding was resumed 4 h after administration. The compounds were dissolved in 5% DMSO+5% Tween 80+90% normal saline. For a single intravenous administration, the administration dose was 1 mg/kg, and the administration volume was 2 mL/kg. For a single intragastric administration, the administration dose was 2 mg/kg, and the administration volume was 10 mL/kg. Blood was collected at 0.083 h (for intravenous administration only), 0.25 h, 0.5 h, 1 h, 2 h, 4 h, 8 h, and 24 h after administration. At each indicated time point, about 150 μL of blood sample was collected from each rat via the vein and placed into an EDTA-K2 tube. Each sample was centrifuged (2000 g, 4° C., 5 min) within 15 min after sample collection to obtain plasma, which was then stored at −70° C. until analysis. The concentration of the corresponding test compound in the SD rat plasma was determined using UPLC-MS/MS.
# [3] = biological target: T2, KAT5 (Homo sapiens, UniProt Q92993); test: Inhibition of human KAT enzymes, radioisotope method: KAT5; type: biochemical; settings: for Ki: KAT5 (full-length), radioisotope method; for KAT5/ KAT6A / KAT5/ KAT6B: selectivity, ratio of Ki
# T2 construct: purchased BPS 79422
# T2 sequence (Q92993 whole entry): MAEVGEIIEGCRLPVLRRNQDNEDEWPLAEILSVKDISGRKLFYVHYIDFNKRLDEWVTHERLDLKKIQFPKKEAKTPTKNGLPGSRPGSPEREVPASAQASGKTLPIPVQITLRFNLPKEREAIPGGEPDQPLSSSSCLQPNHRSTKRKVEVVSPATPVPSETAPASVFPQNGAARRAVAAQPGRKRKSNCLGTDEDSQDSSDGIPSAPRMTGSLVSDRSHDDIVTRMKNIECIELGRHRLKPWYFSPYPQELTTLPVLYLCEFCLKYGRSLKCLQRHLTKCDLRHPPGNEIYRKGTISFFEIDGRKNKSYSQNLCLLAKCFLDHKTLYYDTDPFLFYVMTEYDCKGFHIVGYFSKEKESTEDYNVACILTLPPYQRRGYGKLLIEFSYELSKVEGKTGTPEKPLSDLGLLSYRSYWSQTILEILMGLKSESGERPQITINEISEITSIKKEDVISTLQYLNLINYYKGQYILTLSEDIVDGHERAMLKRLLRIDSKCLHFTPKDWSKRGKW
# Excerpt: as §1, §2, §3, §4, §5, §6, §7, §8, §9, §10
# [4] = biological target: T3, KAT6B (Homo sapiens, UniProt Q8WYB5); test: Inhibition of human KAT enzymes, radioisotope method: KAT6B; type: biochemical; settings: KAT6B (718-1008)
# T3 construct: purchased ACTIVE MOTIF 81224
# T3 sequence (Q8WYB5 whole entry): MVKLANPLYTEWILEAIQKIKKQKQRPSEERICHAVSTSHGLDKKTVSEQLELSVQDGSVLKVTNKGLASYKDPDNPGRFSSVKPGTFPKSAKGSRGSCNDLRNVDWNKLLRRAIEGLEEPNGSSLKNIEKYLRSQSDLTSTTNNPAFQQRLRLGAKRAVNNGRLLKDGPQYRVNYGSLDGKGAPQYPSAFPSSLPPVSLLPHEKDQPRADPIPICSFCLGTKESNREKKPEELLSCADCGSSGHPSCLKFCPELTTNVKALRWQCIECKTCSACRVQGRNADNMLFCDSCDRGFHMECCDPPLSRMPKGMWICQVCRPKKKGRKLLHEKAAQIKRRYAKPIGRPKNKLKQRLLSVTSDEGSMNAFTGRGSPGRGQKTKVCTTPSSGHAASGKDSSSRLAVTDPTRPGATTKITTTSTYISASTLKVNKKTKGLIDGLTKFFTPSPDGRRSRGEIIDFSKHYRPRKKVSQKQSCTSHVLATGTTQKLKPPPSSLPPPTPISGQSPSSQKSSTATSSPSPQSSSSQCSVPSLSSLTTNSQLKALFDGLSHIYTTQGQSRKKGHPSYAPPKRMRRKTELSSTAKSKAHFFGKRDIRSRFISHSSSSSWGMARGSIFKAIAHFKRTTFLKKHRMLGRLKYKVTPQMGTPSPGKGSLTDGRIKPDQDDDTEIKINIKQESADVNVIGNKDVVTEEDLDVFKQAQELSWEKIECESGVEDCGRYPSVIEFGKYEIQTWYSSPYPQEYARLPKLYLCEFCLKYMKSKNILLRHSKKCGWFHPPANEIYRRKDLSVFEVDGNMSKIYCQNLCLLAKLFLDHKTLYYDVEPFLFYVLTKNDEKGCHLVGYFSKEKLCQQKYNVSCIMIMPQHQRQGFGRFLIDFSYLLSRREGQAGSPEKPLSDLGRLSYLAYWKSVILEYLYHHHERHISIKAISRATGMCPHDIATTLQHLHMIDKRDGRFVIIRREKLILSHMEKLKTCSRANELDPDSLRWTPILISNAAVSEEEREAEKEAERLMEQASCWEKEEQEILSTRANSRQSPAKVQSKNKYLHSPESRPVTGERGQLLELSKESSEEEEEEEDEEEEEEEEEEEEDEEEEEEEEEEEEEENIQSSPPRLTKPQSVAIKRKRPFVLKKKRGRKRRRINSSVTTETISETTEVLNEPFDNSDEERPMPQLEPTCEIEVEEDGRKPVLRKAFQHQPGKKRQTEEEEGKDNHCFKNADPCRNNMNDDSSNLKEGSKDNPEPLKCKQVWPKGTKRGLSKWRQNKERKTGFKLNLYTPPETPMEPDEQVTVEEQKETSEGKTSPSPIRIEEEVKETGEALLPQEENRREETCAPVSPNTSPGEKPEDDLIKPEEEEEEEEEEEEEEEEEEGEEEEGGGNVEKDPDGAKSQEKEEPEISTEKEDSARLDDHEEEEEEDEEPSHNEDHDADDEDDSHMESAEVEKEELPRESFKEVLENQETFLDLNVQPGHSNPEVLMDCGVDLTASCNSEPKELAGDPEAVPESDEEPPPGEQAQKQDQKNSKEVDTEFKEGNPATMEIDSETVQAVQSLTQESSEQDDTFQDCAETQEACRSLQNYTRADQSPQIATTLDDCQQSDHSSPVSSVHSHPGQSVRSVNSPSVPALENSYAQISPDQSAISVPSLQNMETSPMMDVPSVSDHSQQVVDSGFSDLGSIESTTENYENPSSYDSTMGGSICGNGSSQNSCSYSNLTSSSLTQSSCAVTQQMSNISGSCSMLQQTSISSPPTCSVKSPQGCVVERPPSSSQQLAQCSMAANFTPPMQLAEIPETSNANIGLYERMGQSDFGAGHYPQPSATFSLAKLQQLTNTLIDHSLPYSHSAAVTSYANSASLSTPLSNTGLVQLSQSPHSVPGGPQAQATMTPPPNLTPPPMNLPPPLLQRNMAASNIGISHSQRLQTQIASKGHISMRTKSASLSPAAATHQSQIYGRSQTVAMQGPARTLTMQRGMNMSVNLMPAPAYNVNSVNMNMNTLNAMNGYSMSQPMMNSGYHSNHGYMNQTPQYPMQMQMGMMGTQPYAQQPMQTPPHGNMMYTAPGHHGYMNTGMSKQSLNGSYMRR
# Excerpt: as §1, §2, §3, §4, §5, §6, §7, §8, §9, §10
# [5] = biological target: T4, KAT6A (Homo sapiens, UniProt Q92794); test: Inhibition of human KAT enzymes, radioisotope method: KAT6A; type: biochemical; settings: KAT6A (488-778)
# T4 construct: purchased ACTIVE MOTIF 81223
# T4 sequence (Q92794 whole entry): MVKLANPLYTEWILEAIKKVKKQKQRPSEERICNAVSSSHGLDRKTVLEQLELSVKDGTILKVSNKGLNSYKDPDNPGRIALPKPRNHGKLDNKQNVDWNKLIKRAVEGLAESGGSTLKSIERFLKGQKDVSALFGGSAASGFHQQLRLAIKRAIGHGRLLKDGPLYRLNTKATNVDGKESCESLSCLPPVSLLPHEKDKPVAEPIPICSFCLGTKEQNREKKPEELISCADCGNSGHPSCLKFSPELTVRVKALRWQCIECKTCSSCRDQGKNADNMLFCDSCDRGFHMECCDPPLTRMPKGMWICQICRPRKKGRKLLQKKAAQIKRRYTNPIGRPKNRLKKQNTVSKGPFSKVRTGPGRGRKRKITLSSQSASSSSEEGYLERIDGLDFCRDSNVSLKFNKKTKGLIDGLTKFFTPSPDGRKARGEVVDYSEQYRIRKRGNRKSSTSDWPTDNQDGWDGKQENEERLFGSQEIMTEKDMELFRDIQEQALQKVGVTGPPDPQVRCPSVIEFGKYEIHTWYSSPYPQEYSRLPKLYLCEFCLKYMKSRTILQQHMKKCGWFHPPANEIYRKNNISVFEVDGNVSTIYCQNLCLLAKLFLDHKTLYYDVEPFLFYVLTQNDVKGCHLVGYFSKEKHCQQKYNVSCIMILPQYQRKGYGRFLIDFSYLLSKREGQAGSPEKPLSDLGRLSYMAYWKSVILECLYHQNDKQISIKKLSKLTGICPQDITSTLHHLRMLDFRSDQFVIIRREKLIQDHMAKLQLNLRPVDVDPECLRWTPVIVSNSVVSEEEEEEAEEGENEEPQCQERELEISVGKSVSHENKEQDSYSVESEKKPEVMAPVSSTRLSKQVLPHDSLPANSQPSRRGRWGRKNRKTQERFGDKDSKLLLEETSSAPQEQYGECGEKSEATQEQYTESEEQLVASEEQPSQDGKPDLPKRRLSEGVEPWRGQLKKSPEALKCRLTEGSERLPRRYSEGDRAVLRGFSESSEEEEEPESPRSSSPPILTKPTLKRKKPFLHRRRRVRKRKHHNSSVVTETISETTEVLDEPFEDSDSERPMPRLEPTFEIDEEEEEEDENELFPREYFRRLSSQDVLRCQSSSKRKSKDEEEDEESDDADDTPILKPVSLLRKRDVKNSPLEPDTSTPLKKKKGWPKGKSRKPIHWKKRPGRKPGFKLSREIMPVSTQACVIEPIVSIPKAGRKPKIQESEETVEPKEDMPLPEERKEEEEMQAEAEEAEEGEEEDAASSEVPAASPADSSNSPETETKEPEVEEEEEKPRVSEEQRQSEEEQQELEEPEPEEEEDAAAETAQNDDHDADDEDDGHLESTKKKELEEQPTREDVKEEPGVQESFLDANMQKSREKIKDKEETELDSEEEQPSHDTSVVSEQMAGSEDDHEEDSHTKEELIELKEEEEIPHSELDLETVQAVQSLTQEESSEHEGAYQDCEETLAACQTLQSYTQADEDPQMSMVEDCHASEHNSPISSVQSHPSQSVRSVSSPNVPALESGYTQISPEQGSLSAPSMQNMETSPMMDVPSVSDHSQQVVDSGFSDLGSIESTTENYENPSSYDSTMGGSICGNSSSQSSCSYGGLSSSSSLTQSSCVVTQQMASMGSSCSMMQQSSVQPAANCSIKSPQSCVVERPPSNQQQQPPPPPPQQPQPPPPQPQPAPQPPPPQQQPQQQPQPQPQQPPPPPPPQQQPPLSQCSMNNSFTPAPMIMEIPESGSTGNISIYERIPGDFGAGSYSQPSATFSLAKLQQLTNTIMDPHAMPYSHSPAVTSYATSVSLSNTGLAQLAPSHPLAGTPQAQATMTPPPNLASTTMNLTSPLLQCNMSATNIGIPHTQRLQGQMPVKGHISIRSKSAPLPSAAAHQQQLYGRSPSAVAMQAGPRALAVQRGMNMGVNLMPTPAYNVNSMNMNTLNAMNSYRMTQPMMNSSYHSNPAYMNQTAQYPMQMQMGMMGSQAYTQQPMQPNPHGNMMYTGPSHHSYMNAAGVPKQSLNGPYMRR
# Excerpt: as §1, §2, §3, §4, §5, §6, §7, §8, §9, §10
SMILES,Ki [1] [nM],KAT7/ KAT6A [1],KAT7/ KAT6B [1],"AUC(0-inf) ([2]; iv, i.v. 1 mg/kg) [ng·h/mL]","clearance ([2]; iv, i.v. 1 mg/kg) [mL/min/kg]","half-life ([2]; iv, i.v. 1 mg/kg) [h]","Vd ([2]; iv, i.v. 1 mg/kg) [L/kg]","AUC(0-inf) ([2]; po, p.o. 2 mg/kg) [ng·h/mL]","bioavailability ([2]; po, p.o. 2 mg/kg) [%]","half-life ([2]; po, p.o. 2 mg/kg) [h]",Ki [3] [nM],KAT5/ KAT6A [3],KAT5/ KAT6B [3],Ki [4] [nM],Ki [5] [nM]
"COc1ccccc1S(=O)(=O)Nc1noc2cc(Cn3cccn3)cc(OC)c12 [PF-8144, reference compound]",85.7,148,17,28300,0.597,3.16,0.143,55500,98,3.79,672,1159,130,5.18,0.58
"COc1ccc2c(c1S(=O)(=O)Nc1noc3cc(Cn4cccn4)c(F)c(OC)c13)OCCO2 [Compound 28, N-(6-((1H-Pyrazol-1-yl)methyl)-5-fluoro-4-methoxybenzo[d]isoxazol-3-yl)-6-methoxy-2,3-dihydrobenzo[b][1,4]dioxine-5-sulfonamide]",40.6,203,45,22600,0.761,5.87,0.295,42800,94.7,6.73,649,3243,721,0.9,0.2
"COc1ccc2c(c1S(=O)(=O)Nc1noc3cc(Cn4cccn4)c(F)c(OC)c13)OCCCO2 [Compound 114, N-(6-((1H-Pyrazol-1-yl)methyl)-5-fluoro-4-methoxybenzo[d]isoxazol-3-yl)-7-methoxy-3,4-dihydro-2H-benzo[b][1,4]dioxepine-6-sulfonamide]",174,458,70,39200,0.462,17.2,0.608,97900,144,13,1850,4880,745,2.49,0.38
"COc1ccc2c(c1S(=O)(=O)Nc1noc3cc(Cn4cccn4)c(F)c(OC)c13)OCC=C2 [Compound 101, N-(6-((1H-Pyrazol-1-yl)methyl)-5-fluoro-4-methoxybenzo[d]isoxazol-3-yl)-7-methoxy-2H-chromene-8-sulfonamide]",7.39,35,11,48100,0.35,8.88,0.237,89100,92.5,9.21,79.6,379,122,0.65,0.21
"COc1ccc2c(c1S(=O)(=O)Nc1noc3cc(Cn4cccn4)c(F)c(OC)c13)OCCCN2C [Compound 115, N-(6-((1H-Pyrazol-1-yl)methyl)-5-fluoro-4-methoxybenzo[d]isoxazol-3-yl)-8-methoxy-5-methyl-2,3,4,5-tetrahydrobenzo[b][1,4]oxazepine-9-sulfonamide]",493,782,76,47500,0.363,14.3,0.408,109000,105,15.9,5040,7998,778,6.48,0.63
"COc1ccc2c(c1S(=O)(=O)Nc1noc3cc(Cn4cccn4)c(F)c(OC)c13)OCCN2C [Compound 109, N-(6-((1H-Pyrazol-1-yl)methyl)-5-fluoro-4-methoxybenzo[d]isoxazol-3-yl)-7-methoxy-4-methyl-3,4-dihydro-2H-benzo[b][1,4]oxazine-8-sulfonamide]",54.7,116,61,90700,0.185,8.57,0.119,187000,96,9.73,286,609,318,0.9,0.47
"COc1ccc2c(c1S(=O)(=O)Nc1noc3cc(Cn4cccn4)c(F)c(OC)c13)OCCC2=O [Compound 42, N-(6-((1H-Pyrazol-1-yl)methyl)-5-fluoro-4-methoxybenzo[d]isoxazol-3-yl)-7-methoxy-4-oxochromane-8-sulfonamide]",,,,10200,1.69,3.79,0.261,11300,55,3.31,,,,,
